Experimental data published in patent US5578725A, “Delta opioid receptor antagonists” (priority 1995, dated 1996).
pKi: −log10 of the molar value. Several values for one entry are separate records, joined by “and”; a condition that tells them apart may be missing. Equal entries are not always repeated. Entries after “also recorded” stand apart in the source; their conditions may differ. Structures can show the parent of a compound that is named as a salt. Where two headings read alike, the source gives them in different places.

Columns and labels:
[1] = biological target: T1, δ1 (Cavia porcellus, UniProt A0A286XTF2); assay: biochemical; format: binding, guinea pig
T1 construct: Guinea Pig Brain Membranes; from tissue; host or cells: guinea pig brain membranes
Experimental: (§1) The opioid receptor affinities of the target compounds were determined on guinea pig membranes employing a modification of the method of Werling et al., J. Pharmacol. Exp. Ther., 233, 722 (1986).

[2] = tested on: δ1; assay: biochemical; format: binding, guinea pig; conditions: for preference between δ1 and δ2 putative binding sites (in words): [3H]DPDPE vs [3H]DSLET
Experimental: as §1

[3] = biological target: T2, δ2 (Cavia porcellus, UniProt A0A286XTF2); assay: biochemical; format: binding, guinea pig
T2 construct: Guinea Pig Brain Membranes; from tissue; host or cells: guinea pig brain membranes
Experimental: as §1

[4] = tested on: δ2; assay: biochemical; format: binding, guinea pig; conditions: DSLET vs DPDPE
Experimental: as §1

[5] = biological target: δ opioid receptors (Mus musculus, UniProt P32300); assay: Antagonism of DADLE (δ) in electrically stimulated mouse vas deferens (MVD) preparation; conditions: for Kb: Ke (nM); for IC50 ratio DADLE(δ): 15 min preincubation
[6] = biological target: μ opioid receptor (Cavia porcellus, UniProt A0ACM8Q262); conditions: GPI, morphine, antagonist 100 nM
[7] = biological target: κ opioid receptor (Cavia porcellus, UniProt P41144); conditions: GPI, ethylketazocine, antagonist 100 nM
[8] = biological target: T3, μ (Mus musculus, UniProt P42866); assay: Tail-flick assay, antagonism of morphine (μ) antinociception; format: in vivo, male Swiss-Webster mice; conditions: for ED50 Ratio (95% C.L.): ED50 with antagonist/control ED50, morphine s.c., antagonist 20 pmol/kg i.c.v.
T3 construct: male Swiss-Webster mice; from tissue; host or cells: living mouse (male Swiss-Webster)

[9] = biological target: T4, κ (Mus musculus, UniProt P33534); format: in vivo, male Swiss-Webster mice; conditions: for ED50 Ratio (95% C.L.): mouse, in vivo
T4 construct: male Swiss-Webster mice; from tissue; host or cells: living mouse (male Swiss-Webster)

[10] = biological target: T5, δ2 (Mus musculus, UniProt P32300); assay: Tail-flick assay, antagonism of DSLET (δ2) antinociception; format: in vivo, male Swiss-Webster mice; conditions: for ED50 Ratio (95% C.L.): ED50 with antagonist/control ED50, DSLET i.c.v., antagonist 20 pmol/kg i.c.v.
T5 construct: male Swiss-Webster mice; from tissue; host or cells: living mouse (male Swiss-Webster)

[11] = biological target: δ1 (Mus musculus, UniProt P32300); conditions: for ED50 Ratio (95% C.L.): ED50 with antagonist/control ED50, DPDPE i.c.v.; for antagonist potency, central vs peripheral delivery (in words): central (i.c.v.) vs peripheral (i.v.); for Dose required to double the ED50 of DPDPE, i.c.v. / Dose required to double the ED50 of DPDPE, i.v.: antagonist dose/(ED50 ratio - 1); for antagonism of DPDPE antinociception (in words): i.v. or i.c.v., mice
[12] = tested on: δ2; conditions: Jiang et al.; Korlipara et al.; cited from earlier work
[13] = compared with 2 or 3; cited from earlier work
[14] = biological target: T6, κ (Cavia porcellus, UniProt P41144); assay: Binding to κ sites, competition with [3H]U69593, guinea pig brain membranes; conditions: geometric mean of three replicates
T6 construct: Guinea Pig Brain Membranes; from tissue; host or cells: guinea pig brain membranes
Experimental: as §1

[15] = tested on: rats; conditions: compared to peptidyl delta-opioid receptor antagonists; Ser. No. 07/750,109; cited from earlier work
[16] = MVD, DADLE, Ke = [antagonist]/(IC50 ratio - 1), antagonist 100 nM
[17] = MVD DADLE IC50 ratio / GPI EK IC50 ratio
[18] = MVD DADLE IC50 ratio / GPI morphine IC50 ratio
[19] = using calculated IC50 ratio (238) based on 100 nM of 7

| SMILES | pKi [1] | Ki Selectivity Ratio δ1/δ2 [2] | Ki Selectivity Ratio κ/δ1 [2] | Ki Selectivity Ratio μ/δ1 [2] | pKi [3] | Kb [5, 16] | IC50 Selectivity Ratio δ/κ [5, 17] | IC50 Selectivity Ratio δ/μ [5, 18] | IC50 ratio DADLE(δ) ([5]; MVD, antagonist 100 nM) | IC50 ratio M(μ) [6] | IC50 ratio EK (κ) [7] | further results |
| --- | --- | --- | --- | --- | --- | --- | --- | --- | --- | --- | --- | --- |
| NCCC[C@H](NC(=O)c1cccc2c3c([nH]c12)[C@@H]1Oc2c(O)ccc4c2[C@@]12CCN(CC1CC1)[C@H](C4)[C@]2(O)C3)C(=O)O [Compound 4, 7'-(Carboxamido L-ornithine)-17-(cyclopropylmethyl)-6,7-dehydro-3,14-dihydroxy-4,5α-epoxy-6,7,2',3'-indolomorphinan hydrochloride] | 9.74 | 11.3 | 320 | 756 | 10.82 | 1.8 nM and 1 to 5 nM | 63 | 20 | 58 ± 15 | 3.0 ± 1 | 0.9 ± 0.0 | preference between δ1 and δ2 putative binding sites (in words) [2]: greater affinity for δ2 relative to δ1 putative binding sites; factor by which compound competed more effectively with [3H]DSLET than with [3H]DPDPE for δ sites [4]: 8-10 |
| O=C(O)C[C@H](NC(=O)c1cccc2c3c([nH]c12)[C@@H]1Oc2c(O)ccc4c2[C@@]12CCN(CC1CC1)[C@H](C4)[C@]2(O)C3)C(=O)O [Compound 3, 7'-(Carboxamido-L-aspartate)-17-(cyclopropylmethyl)-6,7-dehydro-3,14-dihydroxy-4,5α-epoxy-6,7,2',3'-indolomorphinan hydrochloride] | 9.85 | 0.3 | 6246 | 2574 | 9.39 | 1.1 nM and 1 to 5 nM | 43 | 67 | 89 ± 20 | 1.3 ± 0.5 | 2.1 ± 0.6 | preference between δ1 and δ2 putative binding sites (in words) ([2]; hydrochloride): modest preference for [^3 H]DPDPE sites; also recorded: modest preference for δ1 over δ2 sites; ED50 Ratio (95% C.L.) [8]: 1.0 (0.7-1.5); ED50 Ratio (95% C.L.) [9]: 0.7 (0.4-1.2); ED50 Ratio (95% C.L.) [10]: 0.5 (0.3-1.1); ED50 Ratio (95% C.L.) ([11]; antagonist 0.8 μmol/kg i.v.): 2.3 (1.7-3.1); ED50 Ratio (95% C.L.) ([11]; antagonist 20 omol/kg (i.c.v.) as printed): 2.6 (2.0-3.6); antagonist potency, central vs peripheral delivery (in words) [11]: highly potent δ opioid antagonists when administered centrally, and many orders of magnitude less potent when delivered by the peripheral route; Dose required to double the ED50 of DPDPE, i.c.v. [11]: 12.5 pmol/kg; antagonism of DPDPE antinociception (in words) [11]: selectively antagonized DPDPE; Dose required to double the ED50 of DPDPE, i.v. [11]: 0.62 µmol/kg; in vivo δ subtype selectivity (in words) ([11]; mouse, in vivo): antagonized the δ1 agonist, DPDPE, but not the δ2 agonist, DSLET; Ratio (i.v./i.c.v.) of doses required to produce equivalent antagonism of DPDPE-induced antinociception ([11]; mouse, in vivo, hydrochloride): 49,600 and > 49,000; i.v./i.c.v. dose ratio relative to that of NTI (times greater) [11]: 7 |
| Oc1ccc2c3c1OC1c4c(c5ccccc5n4Cc4ccccc4)CC4(O)C(C2)N(CC2CC2)CCC314 (stereo not drawn) [benzylnaltrindole] | – | – | – | – | – | – | – | – | – | – | – | in vivo δ subtype selectivity (in words) [12]: δ2 -selective antagonists; lipophilicity (in words) [13]: considerably more lipophilic than 2 or 3 |
| O=C(O)c1cccc2c3c([nH]c12)[C@@H]1Oc2c(O)ccc4c2[C@@]12CCN(CC1CC1)[C@H](C4)[C@]2(O)C3 [Compound 7, 7'-Carboxy-17-(cyclopropylmethyl)-6,7-dehydro-3,14-dihydroxy-4,5α-epoxy-6,7,2',3'-indolomorphinan hydrochloride] | 10.89 | 0.8 | 3246 | 1846 | 10.80 | – | – | – | – | 2.0 ± 0.3 | 1.0 ± 0.2 | pKi [14]: 7.38; affinity for δ1 sites relative to NTI (times greater) [1]: 6 times; affinity for δ sites (in words) ([1]; δ1 and δ2 sites, guinea pig membranes): high affinity for δ sites; δ opioid receptor antagonist potency (in words) [5]: δ antagonist potency approaching that of NTI; Kb ([5]; MVD, DADLE, concentration of 7 was 10 nM): 0.4 nM; calculated IC50 ratio based on 100 nM of 7 ([5]; MVD, DADLE, calculated for 100 nM): 238; IC50 Selectivity Ratio δ/κ [5, 19]: 231; IC50 Selectivity Ratio δ/μ [5, 19]: 122 |
| N=C(N)NCCC[C@H](NC(=O)c1cccc2c3c([nH]c12)[C@@H]1Oc2c(O)ccc4c2[C@@]12CCN(CC1CC1)[C@H](C4)[C@]2(O)C3)C(=O)O [Compound 5, 7'-(Carboxamido-L-arginine)-17-(cyclopropylmethyl)-6,7-dehydro-3,14-dihydroxy-4,5α-epoxy-6,7,2',3'-indolomorphinan hydrochloride] | 9.80 | 1.9 | 1181 | 2096 | 10.08 | 3.3 nM and 1 to 5 nM | 27 | 24 | 31 ± 5 | 1.3 ± 0.6 | 1.2 ± 0.5 | – |
| O=C(O)CNC(=O)c1cccc2c3c([nH]c12)[C@@H]1Oc2c(O)ccc4c2[C@@]12CCN(CC1CC1)[C@H](C4)[C@]2(O)C3 [Compound 2, 7'-(Carboxamidoglycine)-17-(cyclopropylmethyl)-6,7-dehydro-3,14-dihydroxy-4,5α-epoxy-6,7,2',3'-indolomorphinan hydrochloride] | – | 8.2 | – | – | – | 3.2 nM and 1 to 5 nM | 30 | 21 | 32 ± 8 | 1.5 ± 0.1 | 1.1 ± 0.2 | pKi [14]: 6.79; affinity for δ1 sites relative to NTI (times greater) [1]: 2 times; preference between δ1 and δ2 putative binding sites (in words) [2]: greater affinity for δ2 relative to δ1 putative binding sites; factor by which compound competed more effectively with [3H]DSLET than with [3H]DPDPE for δ sites [4]: 8-10; ED50 Ratio (95% C.L.) [8]: 0.9 (0.8-1.1); antagonism of morphine antinociception (in words) ([8]; mice): No significant antagonism; antagonism of U50488 antinociception (in words) ([9]; mice): No significant antagonism; ED50 Ratio (95% C.L.) [9]: 0.8 (0.7-0.9); ED50 Ratio (95% C.L.) [10]: 1.1 (0.8-1.6); antagonism of DSLET antinociception (in words) ([10]; mice): No significant antagonism; ED50 Ratio (95% C.L.) ([11]; antagonist 20 pmol/kg i.c.v.): 5.3 (3.6-7.7); ED50 Ratio (95% C.L.) ([11]; antagonist 0.9 μmol/kg i.v.): 2.7 (1.9-4.0); antagonist potency, central vs peripheral delivery (in words) [11]: highly potent δ opioid antagonists when administered centrally, and many orders of magnitude less potent when delivered by the peripheral route; Dose required to double the ED50 of DPDPE, i.c.v. [11]: 4.7 pmol/kg; antagonism of DPDPE antinociception (in words) [11]: effectively antagonized the antinociceptive effect of the δ1 agonist, DPDPE; Dose required to double the ED50 of DPDPE, i.v. [11]: 0.53 µmol/kg; in vivo δ subtype selectivity (in words) ([11]; mouse, in vivo): antagonized the δ1 agonist, DPDPE, but not the δ2 agonist, DSLET; i.v./i.c.v. dose ratio relative to that of NTI (times greater) [11]: 15 |
| NCCCC[C@H](NC(=O)c1cccc2c3c([nH]c12)[C@@H]1Oc2c(O)ccc4c2[C@@]12CCN(CC1CC1)[C@H](C4)[C@]2(O)C3)C(=O)O [Compound 6, 7'-(N(α)-Carboxamido-L-lysine)-17-(cyclopropylmethyl)-6,7-dehydro-3,14dihydroxy-4,5α-epoxy-6,7,2',3'-indolomorphinan hydrochloride] | 9.52 | 0.4 | 134 | 719 | 9.12 | 5.2 nM and 1 to 5 nM | 20 | 20 | 20 ± 4 | 1.0 ± 0.4 | 1.1 ± 0.0 | preference between δ1 and δ2 putative binding sites (in words) ([2]; hydrochloride): modest preference for [^3 H]DPDPE sites; also recorded: modest preference for δ1 over δ2 sites |
| Oc1ccc2c3c1O[C@H]1c4oc5ccccc5c4C[C@@]4(O)[C@@H](C2)N(CC2CC2)CC[C@]314 [naltriben (NTB), naltriben] | – | – | – | – | – | – | – | – | – | – | – | suppression of ethanol drinking (in words) [15]: unexpectedly prolonged suppression of ethanol drinking; in vivo δ subtype selectivity (in words) [12]: δ2 -selective antagonists; lipophilicity (in words) [13]: considerably more lipophilic than 2 or 3 |
